Laboratory results from patent publication US12116388B2, “Amylin receptor agonists” (Novo Nordisk A/S, priority 2022, dated 2024).
Starred links: 1 amine or outer side, 2 acyl side, 3 side chain; linkers in the order of their positions; H or OH if unused. Residues, ends and D or L forms follow the SMILES beside them. Groups on a side chain read outwards from the residue. *: point of attachment. C20 diacid = O=C(O)CCCCCCCCCCCCCCCCCCC(=O)*; C18 diacid = O=C(O)CCCCCCCCCCCCCCCCC(=O)*; γGlu = O=C(O)[C@H](CCC(=O)[*:2])N[*:1]

Legend:
[1] = target: T1, human calcitonin receptor (hCTR) (Homo sapiens, UniProt P30988); experiment: Human calcitonin receptor (hCTR) in vitro potency assay, CRE-luciferase reporter in BHK cells; assay type: cell-based; details: BHK hCTR/CRE-Luc cells, 3 hours incubation, assay buffer with 1% ovalbumin; read-out: hCalcR potency, EC50
T1 construct: host or cells: BHK (Baby Hamster Kidney), Hollex-1 cell line
T1 sequence (P30988 25-474): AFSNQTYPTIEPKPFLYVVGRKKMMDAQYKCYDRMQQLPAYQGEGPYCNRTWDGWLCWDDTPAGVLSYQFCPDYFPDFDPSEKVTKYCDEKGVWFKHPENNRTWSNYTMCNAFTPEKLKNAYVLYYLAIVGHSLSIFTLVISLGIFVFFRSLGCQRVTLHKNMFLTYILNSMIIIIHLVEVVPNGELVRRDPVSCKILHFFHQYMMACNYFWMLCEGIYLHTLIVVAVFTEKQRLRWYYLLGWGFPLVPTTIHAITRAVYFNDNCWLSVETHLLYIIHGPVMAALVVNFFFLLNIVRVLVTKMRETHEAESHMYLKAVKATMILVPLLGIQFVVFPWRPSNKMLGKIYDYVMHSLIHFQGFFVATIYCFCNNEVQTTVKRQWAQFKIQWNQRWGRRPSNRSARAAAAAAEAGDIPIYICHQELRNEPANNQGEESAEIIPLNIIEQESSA
Method in brief: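 Luciferase signal from a CRE reporter served as the cAMP read-out after 3 h, 37 °C exposure to compound. Cells were stably transfected BHK expressing hCTR, and the buffer was phenol-red-free DMEM with 10 mM HEPES and 1% ovalbumin. Compounds were tested as 7-point, 7-fold dilutions, often from about 10 nM.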

Sprague Dawley (SD) rats = experiment: Acute food intake in ad libitum fed rat model; assay type: in vivo; details: single s.c. administration, negative value = reduced food intake
Procedure: Lyophilised compound was dissolved in vehicle, 8 mM phosphate, 250 mM glycerol, 0.007% polysorbate 20, and pH was adjusted to 7.4 with 1N NaOH.
Normal weight Sprague Dawley (SD) rats from Taconic Europe, Denmark, were used for the acute food intake studies. The purpose of these studies was to test in vivo effect on food intake and to provide an indication of the compounds' duration of action. Experiments were conducted with permission from the Danish Animal Experiments Inspectorate and were performed in accordance with the guidelines of the Danish legislation governing animal experimentation (1987) as well as the National Institutes of Health (publication number 85-23) and the European Convention for the Protection of Vertebrate Animals used for Experimental and other Scientific Purposes (Council of Europe No 123, Strasbourg 1985).
Prior to study start, rats were acclimatized to the experimental settings for 14 days. During this period, the animals were handled at least 2 times. Immediately upon arrival, rats were put on a reversed light cycle (dark from 10 am-10 pm or 11 am-11 pm) and were transferred into one of three following food intake measuring systems: FeedWin, BioDaq or HM2. Rats were single housed in the FeedWin and BioDaq system and were housed three a cage in the HM2 system (rats were in this case ID-chipped). During the acclimatization period, in which the rats get used to the new light cycle and diet, the animals had free access to food and water. […] Each amylin analogue was tested in a group of 5-6 rats. A vehicle group of 5-6 rats was included in each experiment and were used as reference point. […] The time of dosing was recorded for each rat.
After dosing, rats were returned to their home cages, where they had access to food and water. Food consumption was recorded individually and continuously by on-line registration for up to 72 h post dosing. At the end of the experiment, body weight was measured again, and animals were euthanized by CO2 overdose.

| SMILES | EC50 [1] | Food intake relative to vehicle (%) 0-24 hr, 3 nmol/kg (Sprague Dawley (SD) rats; 0-24 hr) | Food intake relative to vehicle (%) 24-48 hr, 3 nmol/kg (Sprague Dawley (SD) rats; 24-48 hr) | Food intake relative to vehicle (%) 48-72 hr, 3 nmol/kg (Sprague Dawley (SD) rats; 48-72 hr) |
| --- | --- | --- | --- | --- |
| CC[C@H](C)[C@H](NC(=O)[C@H](CCCCNC(=O)CC[C@H](NC(=O)CCCCCCCCCCCCCCCCC(=O)O)C(=O)O)NC(=O)CNC(=O)[C@H](Cc1ccccc1)NC(=O)[C@H](CC(N)=O)NC(=O)[C@H](CC(=O)O)NC(=O)[C@H](CO)NC(=O)[C@H](CO)NC(=O)[C@H](Cc1c[nH]cn1)NC(=O)[C@H](Cc1c[nH]cn1)NC(=O)[C@H](CC(C)C)NC(=O)[C@H](Cc1ccccc1)NC(=O)[C@H](CCC(=O)O)NC(=O)[C@H](C)NC(=O)[C@H](CC(C)C)NC(=O)[C@H](CCCNC(=N)N)NC(=O)[C@H](C)NC(=O)[C@@H](NC(=O)[C@H](CCC(N)=O)NC(=O)[C@H](C)NC(=O)[C@@H](NC(=O)[C@H](CO)NC(=O)[C@H](CC(C)C)NC(=O)[C@H](Cc1c[nH]cn1)NC(=O)[C@H](CO)NC(=O)[C@H](C)NC(C)=O)[C@@H](C)O)[C@@H](C)O)C(=O)N[C@@H](CC(C)C)C(=O)N1CCC[C@H]1C(=O)N1CCC[C@H]1C(=O)N[C@H](C(=O)N[C@@H](CC(=O)O)C(=O)N[C@H](C(=O)NCC(=O)N[C@@H](CO)C(=O)N[C@@H](CC(N)=O)C(=O)N[C@H](C(=O)N1CCC[C@H]1C(N)=O)[C@@H](C)O)C(C)C)[C@@H](C)O [Compound 41, N^1-acetyl,N{Epsilon-25}-[(4S)-4-carboxy-4-(17-carboxyheptadecanoylamino)butanoyl]-[Ala1,Ser2,His3,Leu4,Ser5,Ala7,Gln8,Ala10,Glu14,His17,Asp21,Lys25,Pro28,Pro29,Asp31,Pro37]-human amylin] (Ac-ASHLSTAQTARLAEFLHHSSDNFGK([γGlu-C18 diacid])ILPPTDVGSNTP-NH2) | 1.16 pM | −88% | −76% | −15% |
| CC[C@H](C)[C@H](NC(=O)[C@@H]1CCCN1C(=O)CNC(=O)[C@H](Cc1ccccc1)NC(=O)[C@H](Cc1c[nH]cn1)NC(=O)[C@H](Cc1c[nH]cn1)NC(=O)[C@H](CC(C)C)NC(=O)[C@H](Cc1ccccc1)NC(=O)[C@H](CCC(=O)O)NC(=O)[C@H](C)NC(=O)[C@H](CC(C)C)NC(=O)[C@H](CCCNC(=N)N)NC(=O)[C@H](C)NC(=O)[C@@H](NC(=O)[C@H](CCC(N)=O)NC(=O)[C@H](C)NC(=O)[C@@H](NC(=O)[C@H](CO)NC(=O)[C@H](CC(C)C)NC(=O)[C@H](CCC(=O)O)NC(=O)CNC(=O)[C@H](C)NC(=O)CC[C@H](NC(=O)CCCCCCCCCCCCCCCCC(=O)O)C(=O)O)[C@@H](C)O)[C@@H](C)O)C(=O)N[C@@H](CC(C)C)C(=O)N1CCC[C@H]1C(=O)N1CCC[C@H]1C(=O)N[C@H](C(=O)N[C@@H](CC(=O)O)C(=O)N[C@H](C(=O)NCC(=O)N[C@@H](CO)C(=O)N[C@@H](CCC(=O)O)C(=O)N[C@H](C(=O)N1CCC[C@H]1C(N)=O)[C@@H](C)O)C(C)C)[C@@H](C)O [Compound 16, N^1-[(4S)-4-carboxy-4-(17-carboxyheptadecanoylamino)butanoyl]-[Ala1,Gly2,Glu3,Leu4,Ser5,Ala7,Gln8,Ala10,Glu14,His17,Pro25,Pro28,Pro29,Asp31,Glu35,Pro37],des-(19-22)-human amylin] ({C18 diacid-γGlu}-AGELSTAQTARLAEFLHHFGPILPPTDVGSETP-NH2) | 1.03 pM |  |  |  |
| CC[C@H](C)[C@H](NC(=O)[C@H](C)NC(=O)CNC(=O)[C@H](Cc1ccccc1)NC(=O)[C@@H]1CCCN1C(=O)[C@H](CC(=O)O)NC(=O)[C@H](CO)NC(=O)[C@H](CO)NC(=O)[C@H](Cc1c[nH]cn1)NC(=O)[C@H](Cc1c[nH]cn1)NC(=O)[C@H](CC(C)C)NC(=O)[C@H](Cc1ccccc1)NC(=O)[C@H](CCC(=O)O)NC(=O)[C@H](C)NC(=O)[C@H](CC(C)C)NC(=O)[C@H](CCCNC(=N)N)NC(=O)[C@H](CCC(N)=O)NC(=O)[C@@H](NC(=O)[C@H](CCC(N)=O)NC(=O)[C@H](C)NC(=O)[C@@H](NC(=O)[C@H](CO)NC(=O)[C@H](CC(C)C)NC(=O)[C@H](CCC(N)=O)NC(=O)[C@H](CO)NC(=O)[C@H](C)NC(=O)CC[C@H](NC(=O)CCCCCCCCCCCCCCCCC(=O)O)C(=O)O)[C@@H](C)O)[C@@H](C)O)C(=O)N1CCC[C@H]1C(=O)N[C@@H](CO)C(=O)N[C@@H](CO)C(=O)N[C@H](C(=O)N[C@@H](CC(=O)O)C(=O)N[C@H](C(=O)NCC(=O)N1CCC[C@H]1C(=O)N[C@@H](CC(=O)O)C(=O)N[C@H](C(=O)N1CCC[C@H]1C(N)=O)[C@@H](C)O)C(C)C)[C@@H](C)O [Compound 24] ({C18 diacid-γGlu}-ASQLSTAQTQRLAEFLHHSSDPFGAIPSSTDVGPDTP-NH2) | 1.56 pM |  |  |  |
| CC[C@H](C)[C@H](NC(=O)[C@@H]1CCCN1C(=O)CNC(=O)[C@H](Cc1ccccc1)NC(=O)[C@H](CC(N)=O)NC(=O)[C@H](CC(=O)O)NC(=O)[C@H](CO)NC(=O)[C@H](CO)NC(=O)[C@H](Cc1c[nH]cn1)NC(=O)[C@H](Cc1c[nH]cn1)NC(=O)[C@H](CC(C)C)NC(=O)[C@H](Cc1ccccc1)NC(=O)[C@H](CCC(=O)O)NC(=O)[C@H](C)NC(=O)[C@H](CC(C)C)NC(=O)[C@H](CCCNC(=N)N)NC(=O)[C@H](C)NC(=O)[C@@H](NC(=O)[C@H](CCC(N)=O)NC(=O)[C@H](C)NC(=O)[C@@H](NC(=O)[C@H](CO)NC(=O)[C@H](CC(C)C)NC(=O)[C@H](CCC(N)=O)NC(=O)[C@H](CO)NC(=O)[C@H](C)NC(=O)CC[C@H](NC(=O)CCCCCCCCCCCCCCCCC(=O)O)C(=O)O)[C@@H](C)O)[C@@H](C)O)C(=O)N[C@@H](CC(C)C)C(=O)N1CCC[C@H]1C(=O)N1CCC[C@H]1C(=O)N[C@H](C(=O)N[C@@H](CC(=O)O)C(=O)N[C@H](C(=O)NCC(=O)N[C@@H](CO)C(=O)N[C@@H](CC(N)=O)C(=O)N[C@H](C(=O)N1CCC[C@H]1C(N)=O)[C@@H](C)O)C(C)C)[C@@H](C)O [Compound 22, N^1-[(4S)-4-carboxy-4-(17-carboxyheptadecanoylamino)butanoyl]-[Ala1,Ser2,Gln3,Leu4,Ser5,Ala7,Gln8,Ala10,Glu14,His17,Asp21,Pro25,Pro28,Pro29,Asp31,Pro37]-human amylin] ({C18 diacid-γGlu}-ASQLSTAQTARLAEFLHHSSDNFGPILPPTDVGSNTP-NH2) | 1.86 pM |  |  |  |
| CC[C@H](C)[C@H](NC(=O)[C@@H]1CCCN1C(=O)CNC(=O)[C@H](Cc1ccccc1)NC(=O)[C@H](Cc1c[nH]cn1)NC(=O)[C@H](Cc1c[nH]cn1)NC(=O)[C@H](CC(C)C)NC(=O)[C@H](Cc1ccccc1)NC(=O)[C@H](CCC(=O)O)NC(=O)[C@H](C)NC(=O)[C@H](CC(C)C)NC(=O)[C@H](CCCNC(=N)N)NC(=O)[C@H](CCC(N)=O)NC(=O)[C@@H](NC(=O)[C@H](CCC(N)=O)NC(=O)[C@H](C)NC(=O)[C@@H](NC(=O)[C@H](CO)NC(=O)[C@H](CC(C)C)NC(=O)[C@H](Cc1c[nH]cn1)NC(=O)[C@H](CO)NC(=O)[C@H](C)NC(=O)CC[C@H](NC(=O)CCCCCCCCCCCCCCCCCCC(=O)O)C(=O)O)[C@@H](C)O)[C@@H](C)O)C(=O)N[C@@H](CC(C)C)C(=O)N1CCC[C@H]1C(=O)N1CCC[C@H]1C(=O)N[C@H](C(=O)N[C@@H](CC(=O)O)C(=O)N[C@H](C(=O)NCC(=O)N[C@@H](CO)C(=O)N[C@@H](CCC(=O)O)C(=O)N[C@H](C(=O)N1CCC[C@H]1C(N)=O)[C@@H](C)O)C(C)C)[C@@H](C)O [Compound 4, N^1-[(4S)-4-carboxy-4-(19-carboxynonadecanoylamino)butanoyl]-[Ala1,Ser2,His3,Leu4,Ser5,Ala7,Gln8,Glu14,His17,Pro25,Pro28,Pro29,Asp31,Glu35,Pro37],des-(19-22)-human amylin] ({C20 diacid-γGlu}-ASHLSTAQTQRLAEFLHHFGPILPPTDVGSETP-NH2) | 1.44 pM |  |  |  |
